These results are taken from patent US10494332B2, “Protein tyrosine phosphatases or SHP2 inhibitors and uses thereof” (Indiana University Research and Technology Corporation, priority 2015, dated 2019).

Values joined by “and” are separate entries in the source; they are usually repeats but may differ in a detail not shown here. Equal values may be shown once. Read-outs that look alike come from different tables or passages of the source.

The target in one assay is PTPε (Homo sapiens, UniProt P23469). Kind of assay: PTP inhibition assay (pNPP). Type of assay: biochemical.
PTPε, sequence (P23469 20-700): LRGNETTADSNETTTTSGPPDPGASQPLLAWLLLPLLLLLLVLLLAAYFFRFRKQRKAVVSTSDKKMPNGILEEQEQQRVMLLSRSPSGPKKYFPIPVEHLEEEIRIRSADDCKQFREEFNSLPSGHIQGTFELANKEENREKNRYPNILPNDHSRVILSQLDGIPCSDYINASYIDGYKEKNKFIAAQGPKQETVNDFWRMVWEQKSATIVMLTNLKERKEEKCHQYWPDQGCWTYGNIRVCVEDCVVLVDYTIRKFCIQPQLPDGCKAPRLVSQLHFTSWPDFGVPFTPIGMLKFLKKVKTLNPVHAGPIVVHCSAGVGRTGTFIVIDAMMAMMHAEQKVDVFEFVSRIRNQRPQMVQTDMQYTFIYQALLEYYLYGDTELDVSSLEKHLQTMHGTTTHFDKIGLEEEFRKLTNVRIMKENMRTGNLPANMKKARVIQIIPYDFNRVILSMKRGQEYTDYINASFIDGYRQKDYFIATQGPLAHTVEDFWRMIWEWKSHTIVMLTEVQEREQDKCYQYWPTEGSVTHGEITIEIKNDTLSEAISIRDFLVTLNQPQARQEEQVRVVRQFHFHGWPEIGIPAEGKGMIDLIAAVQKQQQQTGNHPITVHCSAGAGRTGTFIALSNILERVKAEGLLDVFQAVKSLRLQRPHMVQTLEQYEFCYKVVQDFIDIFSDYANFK
The next assay deals with FAP1 (Homo sapiens, UniProt Q12923). The experiment in a line: PTP inhibition assay (pNPP). Type of assay: biochemical. The settings on record: pNPP at Km, pH 7.0, 25° C.; read-out: IC50 FAP1.
FAP1, sequence (Q12923 whole entry): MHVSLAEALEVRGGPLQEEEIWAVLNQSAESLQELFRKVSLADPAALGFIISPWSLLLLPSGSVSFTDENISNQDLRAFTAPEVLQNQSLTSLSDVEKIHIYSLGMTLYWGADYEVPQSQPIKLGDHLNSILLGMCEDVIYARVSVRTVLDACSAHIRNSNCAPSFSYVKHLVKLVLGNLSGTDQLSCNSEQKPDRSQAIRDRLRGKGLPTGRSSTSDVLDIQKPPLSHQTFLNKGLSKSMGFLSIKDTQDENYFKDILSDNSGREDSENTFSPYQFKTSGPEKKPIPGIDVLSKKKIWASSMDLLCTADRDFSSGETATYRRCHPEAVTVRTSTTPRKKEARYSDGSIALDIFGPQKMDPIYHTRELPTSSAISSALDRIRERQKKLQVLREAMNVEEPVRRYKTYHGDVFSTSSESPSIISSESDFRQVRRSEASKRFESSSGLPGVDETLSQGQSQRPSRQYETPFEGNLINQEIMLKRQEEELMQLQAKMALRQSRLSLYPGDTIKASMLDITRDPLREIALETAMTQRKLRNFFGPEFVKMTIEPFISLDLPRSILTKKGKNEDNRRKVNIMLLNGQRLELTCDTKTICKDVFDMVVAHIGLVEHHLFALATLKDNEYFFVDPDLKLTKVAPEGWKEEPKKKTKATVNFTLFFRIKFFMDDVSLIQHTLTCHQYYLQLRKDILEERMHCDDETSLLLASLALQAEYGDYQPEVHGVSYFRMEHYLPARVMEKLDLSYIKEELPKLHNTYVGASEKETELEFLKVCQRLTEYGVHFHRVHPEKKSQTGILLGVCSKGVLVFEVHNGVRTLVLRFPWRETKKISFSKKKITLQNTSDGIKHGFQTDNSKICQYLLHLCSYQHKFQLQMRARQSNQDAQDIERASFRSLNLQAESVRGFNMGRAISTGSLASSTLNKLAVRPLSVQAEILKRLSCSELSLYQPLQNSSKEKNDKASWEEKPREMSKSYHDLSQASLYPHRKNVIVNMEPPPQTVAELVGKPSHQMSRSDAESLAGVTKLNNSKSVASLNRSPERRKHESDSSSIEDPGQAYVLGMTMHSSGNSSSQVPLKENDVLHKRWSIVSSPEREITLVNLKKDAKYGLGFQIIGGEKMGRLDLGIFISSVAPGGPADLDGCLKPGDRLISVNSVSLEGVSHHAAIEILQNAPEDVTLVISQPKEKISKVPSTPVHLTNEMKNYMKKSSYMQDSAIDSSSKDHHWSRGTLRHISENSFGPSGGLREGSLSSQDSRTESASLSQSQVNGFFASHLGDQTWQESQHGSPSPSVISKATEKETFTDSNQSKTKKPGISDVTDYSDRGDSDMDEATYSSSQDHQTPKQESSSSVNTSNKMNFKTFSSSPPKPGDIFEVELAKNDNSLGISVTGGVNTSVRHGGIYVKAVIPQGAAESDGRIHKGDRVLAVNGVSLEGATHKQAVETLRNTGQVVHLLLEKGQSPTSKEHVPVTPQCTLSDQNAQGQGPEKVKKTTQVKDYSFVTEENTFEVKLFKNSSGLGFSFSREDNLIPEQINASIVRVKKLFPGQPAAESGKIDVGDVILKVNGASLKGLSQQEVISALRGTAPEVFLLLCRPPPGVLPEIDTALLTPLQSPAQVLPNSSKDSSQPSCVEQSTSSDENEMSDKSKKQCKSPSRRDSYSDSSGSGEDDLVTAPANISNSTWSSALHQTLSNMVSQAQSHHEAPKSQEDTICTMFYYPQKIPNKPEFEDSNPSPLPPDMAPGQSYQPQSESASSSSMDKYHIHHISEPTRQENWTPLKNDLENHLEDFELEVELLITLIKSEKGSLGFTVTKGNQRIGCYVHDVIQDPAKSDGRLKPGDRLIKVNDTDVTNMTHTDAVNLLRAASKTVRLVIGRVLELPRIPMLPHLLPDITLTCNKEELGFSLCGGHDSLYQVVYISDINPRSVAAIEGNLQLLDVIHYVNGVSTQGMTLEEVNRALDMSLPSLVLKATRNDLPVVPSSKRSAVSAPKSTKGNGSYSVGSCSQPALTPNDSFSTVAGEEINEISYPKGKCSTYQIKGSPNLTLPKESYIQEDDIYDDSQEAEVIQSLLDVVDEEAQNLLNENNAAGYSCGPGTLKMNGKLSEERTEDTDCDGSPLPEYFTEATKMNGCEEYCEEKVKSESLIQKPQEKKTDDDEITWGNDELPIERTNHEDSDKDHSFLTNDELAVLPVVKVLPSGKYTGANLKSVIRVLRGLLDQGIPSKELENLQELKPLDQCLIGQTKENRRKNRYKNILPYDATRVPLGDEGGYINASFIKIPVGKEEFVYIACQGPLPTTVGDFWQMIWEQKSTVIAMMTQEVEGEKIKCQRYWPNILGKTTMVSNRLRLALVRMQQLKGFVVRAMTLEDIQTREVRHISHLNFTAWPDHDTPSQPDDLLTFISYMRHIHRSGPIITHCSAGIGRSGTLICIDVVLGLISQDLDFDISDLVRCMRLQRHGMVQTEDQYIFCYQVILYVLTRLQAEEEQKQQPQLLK
Another assay has as its target VHR (Homo sapiens, UniProt P51452). Kind of assay: PTP inhibition assay (pNPP). The settings on record: pNPP at Km, pH 7.0, 25° C. Type of assay: biochemical.
For another assay, the target named is T1, Ssu72 (Homo sapiens, UniProt Q9NP77).
T1 sequence (Q9NP77 1-194): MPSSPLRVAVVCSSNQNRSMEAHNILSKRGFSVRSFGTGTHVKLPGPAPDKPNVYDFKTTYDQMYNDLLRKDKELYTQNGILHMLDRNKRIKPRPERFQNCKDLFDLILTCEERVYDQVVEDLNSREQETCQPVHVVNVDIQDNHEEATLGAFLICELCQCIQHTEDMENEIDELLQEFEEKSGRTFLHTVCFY
The experiment in a line: PTP inhibition assay (pNPP). The format is biochemical. The settings on record: pNPP at Km, pH 7.0, 25° C.; read-out: IC50 Ssu72.

The next assay addresses PTPα (Homo sapiens, UniProt P18433). The experiment in a line: PTP inhibition assay (pNPP). The format is biochemical.
The target in another assay is T2, VHX (Homo sapiens, UniProt Q9NRW4).
T2 sequence (Q9NRW4 1-184): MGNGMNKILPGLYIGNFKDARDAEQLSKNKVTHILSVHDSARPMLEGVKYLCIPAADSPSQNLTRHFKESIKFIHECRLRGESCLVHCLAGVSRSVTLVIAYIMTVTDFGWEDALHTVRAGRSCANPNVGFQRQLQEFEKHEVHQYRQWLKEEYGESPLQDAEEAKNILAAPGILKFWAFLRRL
The experiment in a line: PTP inhibition assay (pNPP). The format is biochemical. The settings on record: pNPP at Km, pH 7.0, 25° C.

Another assay addresses T3, STEP (Homo sapiens, UniProt P54829).
T3 sequence (P54829 1-565): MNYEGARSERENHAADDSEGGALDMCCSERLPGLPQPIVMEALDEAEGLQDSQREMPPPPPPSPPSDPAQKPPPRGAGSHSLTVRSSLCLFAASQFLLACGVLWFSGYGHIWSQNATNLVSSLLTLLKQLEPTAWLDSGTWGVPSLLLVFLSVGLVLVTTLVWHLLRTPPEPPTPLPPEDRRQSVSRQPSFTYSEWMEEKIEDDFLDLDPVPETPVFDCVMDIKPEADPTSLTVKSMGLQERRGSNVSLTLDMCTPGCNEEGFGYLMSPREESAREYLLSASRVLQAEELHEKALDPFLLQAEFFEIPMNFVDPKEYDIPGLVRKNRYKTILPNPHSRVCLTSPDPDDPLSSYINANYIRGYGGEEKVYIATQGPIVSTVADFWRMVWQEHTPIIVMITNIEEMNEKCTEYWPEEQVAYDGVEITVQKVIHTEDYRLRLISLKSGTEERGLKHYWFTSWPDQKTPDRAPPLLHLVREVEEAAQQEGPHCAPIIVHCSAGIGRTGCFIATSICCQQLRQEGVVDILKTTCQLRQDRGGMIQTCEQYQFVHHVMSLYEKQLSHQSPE
The experiment in a line: PTP inhibition assay (pNPP). Type of assay: biochemical. The settings on record: pNPP at Km, pH 7.0, 25° C.; read-out: IC50 STEP.

The target of a further assay is T4, mPTPB (Mycobacterium tuberculosis, UniProt I6WXK4).
T4 sequence (I6WXK4 1-276): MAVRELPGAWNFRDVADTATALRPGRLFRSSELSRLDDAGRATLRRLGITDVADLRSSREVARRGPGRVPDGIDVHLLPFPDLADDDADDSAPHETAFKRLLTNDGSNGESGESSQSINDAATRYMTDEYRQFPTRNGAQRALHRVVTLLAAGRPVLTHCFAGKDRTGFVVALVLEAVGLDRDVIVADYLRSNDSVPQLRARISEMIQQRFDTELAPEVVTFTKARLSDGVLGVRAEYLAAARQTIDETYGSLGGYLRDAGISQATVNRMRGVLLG
The experiment in a line: biochemical.

The target in the next assay is T5, CDC14A (Homo sapiens, UniProt Q9UNH5).
T5 sequence (Q9UNH5 1-594): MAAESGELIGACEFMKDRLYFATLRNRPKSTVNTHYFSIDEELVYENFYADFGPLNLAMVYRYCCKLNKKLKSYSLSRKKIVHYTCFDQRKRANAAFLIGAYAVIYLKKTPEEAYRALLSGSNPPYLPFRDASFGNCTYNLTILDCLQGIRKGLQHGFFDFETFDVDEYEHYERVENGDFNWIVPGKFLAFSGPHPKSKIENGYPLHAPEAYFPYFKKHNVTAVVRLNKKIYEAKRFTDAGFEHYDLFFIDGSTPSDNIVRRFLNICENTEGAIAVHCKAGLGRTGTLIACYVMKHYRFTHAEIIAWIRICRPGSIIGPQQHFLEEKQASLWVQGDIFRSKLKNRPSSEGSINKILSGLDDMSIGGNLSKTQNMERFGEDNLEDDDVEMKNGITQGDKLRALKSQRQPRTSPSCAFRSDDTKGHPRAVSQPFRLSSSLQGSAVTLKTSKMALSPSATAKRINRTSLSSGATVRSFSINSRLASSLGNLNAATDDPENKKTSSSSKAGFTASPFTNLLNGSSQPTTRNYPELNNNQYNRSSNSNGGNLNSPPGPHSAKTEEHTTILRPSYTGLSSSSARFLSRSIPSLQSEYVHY
Kind of assay: PTP inhibition assay (pNPP). Type of assay: biochemical.

The target in a further assay is mPTPA (Mycobacterium tuberculosis, UniProt P9WIA1). The experiment in a line: biochemical. Particulars: for IC50: IC50 mPTPA.
mPTPA, sequence (P9WIA1 whole entry): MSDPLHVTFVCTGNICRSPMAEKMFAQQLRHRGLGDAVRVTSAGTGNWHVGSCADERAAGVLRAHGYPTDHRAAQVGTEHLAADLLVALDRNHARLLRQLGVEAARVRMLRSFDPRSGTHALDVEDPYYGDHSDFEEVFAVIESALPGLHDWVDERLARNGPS
The target of the next assay is T6, Laforin (Homo sapiens, UniProt O95278).
T6 sequence (O95278 1-331): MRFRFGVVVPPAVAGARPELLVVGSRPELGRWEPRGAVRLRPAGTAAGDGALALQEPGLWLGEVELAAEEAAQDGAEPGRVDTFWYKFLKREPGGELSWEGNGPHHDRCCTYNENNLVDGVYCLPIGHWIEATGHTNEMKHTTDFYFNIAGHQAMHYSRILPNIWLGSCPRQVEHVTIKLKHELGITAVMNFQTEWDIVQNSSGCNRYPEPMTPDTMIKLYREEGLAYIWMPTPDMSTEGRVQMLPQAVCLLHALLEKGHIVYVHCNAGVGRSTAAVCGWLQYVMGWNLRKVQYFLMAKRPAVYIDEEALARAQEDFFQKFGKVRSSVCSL
Kind of assay: PTP inhibition assay (pNPP). The format is biochemical. The settings on record: pNPP at Km, pH 7.0, 25° C.; read-out: IC50 Laforin.

[1] abbreviates: read-out: IC50 VHX (second VHX line of Table 15).
Setting [2] is: Biochemical potency against target (Ic50, nM) mPTPB.

PTPα, sequence (P18433 20-802): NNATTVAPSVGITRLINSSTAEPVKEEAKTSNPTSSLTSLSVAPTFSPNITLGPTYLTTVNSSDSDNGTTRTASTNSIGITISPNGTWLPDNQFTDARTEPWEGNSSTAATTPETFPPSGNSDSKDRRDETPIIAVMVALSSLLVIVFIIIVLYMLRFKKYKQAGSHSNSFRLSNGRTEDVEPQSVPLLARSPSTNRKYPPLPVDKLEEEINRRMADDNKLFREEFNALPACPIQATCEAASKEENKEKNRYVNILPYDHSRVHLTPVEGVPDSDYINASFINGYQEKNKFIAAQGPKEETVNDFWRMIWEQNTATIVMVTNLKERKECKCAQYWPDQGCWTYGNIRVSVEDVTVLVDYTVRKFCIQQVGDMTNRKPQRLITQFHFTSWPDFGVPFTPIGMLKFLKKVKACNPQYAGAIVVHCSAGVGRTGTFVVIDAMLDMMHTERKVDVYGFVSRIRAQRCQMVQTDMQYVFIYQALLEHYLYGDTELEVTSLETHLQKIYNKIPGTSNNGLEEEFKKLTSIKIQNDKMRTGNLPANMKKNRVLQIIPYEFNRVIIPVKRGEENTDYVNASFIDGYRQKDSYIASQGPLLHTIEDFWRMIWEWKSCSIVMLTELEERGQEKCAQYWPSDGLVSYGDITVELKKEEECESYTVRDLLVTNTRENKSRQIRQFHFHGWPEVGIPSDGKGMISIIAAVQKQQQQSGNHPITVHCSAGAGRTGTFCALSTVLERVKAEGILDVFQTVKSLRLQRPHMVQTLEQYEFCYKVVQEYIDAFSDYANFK
VHR, sequence (P51452 whole entry): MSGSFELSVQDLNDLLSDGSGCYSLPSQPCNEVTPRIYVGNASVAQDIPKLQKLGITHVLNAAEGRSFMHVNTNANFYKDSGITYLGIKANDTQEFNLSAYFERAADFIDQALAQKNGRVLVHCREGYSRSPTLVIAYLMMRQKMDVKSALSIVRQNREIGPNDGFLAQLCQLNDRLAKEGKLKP

For orientation: IC50 means the midpoint of a concentration-inhibition curve. With `O=C(Nc1ccc2nc(C(F)(F)F)[nH]c2c1)C(c1ccccc1)S(=O)(=O)O` (stereo not shown) [Compound L319M54], the half-maximal inhibitory concentration (IC50) was above 200 µM against PTPε; 180 µM and > 100 µM at FAP1; above 200 µM against VHR; above 200 µM on Ssu72; above 200 µM at PTPα; above 200 µM at VHX (read-out: IC50 VHX). The IC50 on VHX (setting [1]) is above 200 µM; on STEP, above 200 µM; against mPTPB (IC50 mPTPB), 78 nM; at CDC14A, above 200 µM; at mPTPA it was 0.265 µM and 0.27 µM; on Laforin it was 4.25 µM.
One may read the Ki as the equilibrium dissociation constant of an inhibitor or competing ligand from its target. A high value points to a looser hold on the target. Regarding `O=C(Nc1ccc(N2CCOCC2)cc1)C(c1ccccc1)S(=O)(=O)O` (stereo not shown) [Compound L319M68], the IC50 on PTPε, on FAP1, on VHR, at Ssu72, at PTPα and at VHX (read-out: IC50 VHX) was above 200 µM throughout. The IC50 on VHX (setting [1]) is above 200 µM; on STEP it was above 200 µM; at mPTPB (IC50 mPTPB), 5000 nM; at CDC14A, above 200 µM; against mPTPA it was 0.25 µM; at Laforin it was 7.47 µM and 7.5 µM. In addition, on mPTPA, the Ki was determined as 0.13 µM.
Regarding `O=C(Nc1cnc2ccccc2c1)C(c1ccccc1)S(=O)(=O)O` (stereo not shown) [Compound L319M88], the concentration for half-maximal inhibition (IC50) at PTPε, at FAP1, at VHR, at Ssu72, at PTPα and at VHX (read-out: IC50 VHX) was above 200 µM throughout. Also, the concentration for half-maximal inhibition (IC50) on VHX (setting [1]) is above 200 µM; at STEP it was above 200 µM; at mPTPB (IC50 mPTPB) it was 282 nM; on CDC14A it was above 200 µM; against mPTPA, 0.143 µM; at Laforin, 8.51 µM and 8.5 µM.
For `O=C(Nc1nc2ccccc2s1)C(c1ccccc1)S(=O)(=O)O` (stereo not shown) [Compound L319N15], the half-maximal inhibitory concentration (IC50) against PTPε was above 200 µM; on FAP1 it was 34 µM; on VHR it was above 200 µM; at Ssu72, 69 µM; against PTPα, above 200 µM; on VHX (read-out: IC50 VHX), above 200 µM. Also, the IC50 at VHX (setting [1]) was above 200 µM; on STEP it was above 200 µM; against mPTPB (IC50 mPTPB), 116 nM; on CDC14A, above 200 µM; against mPTPA, 0.194 µM; at Laforin, 2.1 µM.
As for `O=C(C(c1ccccc1)S(=O)(=O)O)N1CCC(Cc2ccccc2)CC1` (stereo not shown) [Compound L319N46], the IC50 against PTPε, at FAP1, on VHR, on Ssu72, against PTPα and on VHX (read-out: IC50 VHX) was above 200 µM in each case. The IC50 on STEP is above 200 µM; against mPTPB (setting [2]), 60 nM; on CDC14A, above 200 µM; on mPTPA, above 200 µM; at Laforin, above 200 µM.
Turning to `O=C(C(c1ccccc1)S(=O)(=O)O)N1CCC(c2ccc(Cl)c(Cl)c2)CC1` (stereo not shown) [Compound L319N47], the IC50 was above 200 µM on PTPε; 21 µM at FAP1; 99 µM at VHR; above 200 µM at Ssu72; above 200 µM against PTPα; 150 µM at VHX (read-out: IC50 VHX). Moreover, the IC50 at STEP was above 200 µM; against mPTPB (setting [2]), 9 nM; at CDC14A, above 200 µM; at mPTPA it was 11.3 µM; on Laforin, 61 µM.
Regarding `O=C(C(c1ccccc1)S(=O)(=O)O)N1CCCC2CCCCC21` (stereo not shown) [Compound L319N53], the IC50 was above 200 µM at PTPε; 76 µM at FAP1; above 200 µM on VHR; above 200 µM on Ssu72; above 200 µM against PTPα; above 200 µM on VHX (read-out: IC50 VHX). Moreover, the IC50 at STEP was above 200 µM; at mPTPB (setting [2]) it was 20 nM; on CDC14A, above 200 µM; against mPTPA, above 200 µM; on Laforin, above 200 µM.
Turning to `O=C(CS(=O)(=O)O)Nc1nc2ccccc2s1` [Compound L335N15], the IC50 against PTPε, on FAP1, against VHR, at Ssu72, on PTPα and at VHX (read-out: IC50 VHX) was above 100 µM each time. The IC50 on VHX (setting [1]) is above 100 µM; at STEP, above 100 µM; against mPTPB (IC50 mPTPB), 9500 nM; against CDC14A it was above 100 µM; against mPTPA it was 0.263 µM; at Laforin it was above 100 µM.
